Key:
[1] = system: HNSCC cell line 1483 xenograft tumors; assay: Antitumor effect in HNSCC xenograft model, tumor volume; assay type: in vivo, Athymic nude mice; settings: 2 weeks treatment, comparison between the three treated groups
HNSCC = settings: cited from earlier work

In the case of `C#Cc1cccc(Nc2ncnc3cc(OCCOC)c(OCCOC)cc23)c1` [erlotinib], the “Response among erlotinib, cetuximab and EGFRAS-GPNA groups” value [1] is given as “no significant difference”, the Clinical response rate (HNSCC; HNSCC and NSCLC patients) is given as 4% and the Disease stabilization (HNSCC; phase II trial, for 16 weeks) is given as 38%. The Response rate (HNSCC; phase II trial) was 4%.

— PMC3684443 (ACS chemical biology, 2012)
